From patent publication US20250353891A1 (MEDIMMUNE LIMITED, priority 2022, published 2025) come the findings set out here.

For experiment [1], the target named is human glucagon receptor (hGCGR) (Homo sapiens, UniProt P47871). Description: cAMP production (HTRF) in CHO cells expressing hGCGR. Format: cell-based. Also on record: expressed in transfected cells. Particulars: Table 6, peptides modified at position 17; cAMP in CHO hGCGR cells; geometric mean; read-out: hGluc-R EC50. In short, it runs like this: (§1)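 Potency values represent EC50 from 4-parameter logistic curves of HTRF % Delta F signal. Receptor-expressing CHO cells (hGCGR 2×10^5 cells/mL, hGLP-1R 1×10^5 cells/mL) were exposed for 30 min at room temperature before two-step cAMP detection.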
Chain of human glucagon receptor (hGCGR) (P47871 26-477): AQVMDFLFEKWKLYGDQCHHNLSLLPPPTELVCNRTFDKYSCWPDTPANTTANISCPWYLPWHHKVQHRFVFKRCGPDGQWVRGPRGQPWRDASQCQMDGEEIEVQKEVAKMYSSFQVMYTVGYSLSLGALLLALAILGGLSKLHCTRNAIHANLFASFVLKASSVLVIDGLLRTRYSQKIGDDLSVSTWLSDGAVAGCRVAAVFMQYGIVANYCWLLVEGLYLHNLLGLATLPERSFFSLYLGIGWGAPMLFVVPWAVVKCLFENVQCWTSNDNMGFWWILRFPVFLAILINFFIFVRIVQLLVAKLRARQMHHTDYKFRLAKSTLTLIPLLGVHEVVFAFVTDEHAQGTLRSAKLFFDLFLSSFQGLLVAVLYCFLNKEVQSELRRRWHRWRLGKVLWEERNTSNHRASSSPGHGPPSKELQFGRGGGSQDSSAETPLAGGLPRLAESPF
In general terms: cAMP levels reflect the balance of adenylyl cyclase and phosphodiesterase activity.

Experiment [2] addresses human GLP-1 receptor (hGLP-1R) (Homo sapiens, UniProt P43220). In words: cAMP production (HTRF) in CHO cells expressing hGLP-1R. The conditions noted are these: for EC50: Table 6, peptides modified at position 17, cAMP in CHO hGLP-1R cells, geometric mean, read-out: hGLP-1R EC50; for % Relative Potency Ratio: Table 6, % GLP-1R activity relative to GLP-1 / % GlucR activity relative to glucagon. Format: cell-based. Set-up: expressed in transfected cells. The method in brief:
as §1

Starred links: 1 amine or outer side, 2 acyl side, 3 side chain; linkers in the order of their positions; H or OH if unused. Non-standard residues stand in square brackets, D forms with d. Residues, ends and D or L forms follow the SMILES beside them. Groups on a side chain read outwards from the residue. *: point of attachment. C18 diacid = O=C(O)CCCCCCCCCCCCCCCCC(=O)*; γGlu = O=C(O)[C@H](CCC(=O)[*:2])N[*:1]; αMeF = C[C@](N)(Cc1ccccc1)C(=O)O; AEEA = NCCOCCOCC(=O)O; Aib = CC(C)(N)C(=O)O

Chain of human GLP-1 receptor (hGLP-1R) (P43220 24-463): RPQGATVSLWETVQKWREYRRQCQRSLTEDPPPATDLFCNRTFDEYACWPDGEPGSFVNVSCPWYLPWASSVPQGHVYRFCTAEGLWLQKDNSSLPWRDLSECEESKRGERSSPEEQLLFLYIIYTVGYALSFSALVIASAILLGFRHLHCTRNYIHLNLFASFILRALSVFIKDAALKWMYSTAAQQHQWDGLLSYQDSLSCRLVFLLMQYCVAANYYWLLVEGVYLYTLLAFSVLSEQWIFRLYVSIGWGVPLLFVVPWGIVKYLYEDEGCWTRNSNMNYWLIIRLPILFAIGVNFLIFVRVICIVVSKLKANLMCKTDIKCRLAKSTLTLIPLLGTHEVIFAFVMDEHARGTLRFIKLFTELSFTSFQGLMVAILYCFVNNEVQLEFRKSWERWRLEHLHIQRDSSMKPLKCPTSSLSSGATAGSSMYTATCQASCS

What is called EC50 is the concentration giving half of the maximal effect. For the compound `CC(C)C[C@H](NC(=O)[C@H](CC(C)C)NC(=O)[C@H](Cc1c[nH]c2ccccc12)NC(=O)[C@H](CCCNC(=N)N)NC(=O)[C@@H](NC(=O)[C@H](Cc1ccccc1)NC(=O)[C@H](CC(=O)O)NC(=O)[C@H](CCC(N)=O)NC(=O)[C@H](C)NC(=O)[C@H](CCCNC(=N)N)NC(=O)[C@H](CCCCNC(=O)COCCOCCNC(=O)COCCOCCNC(=O)CC[C@H](NC(=O)CCCCCCCCCCCCCCCCC(=O)O)C(=O)O)NC(=O)[C@@H](NC(=O)[C@H](CC(=O)O)NC(=O)[C@H](CC(C)C)NC(=O)[C@](C)(Cc1ccccc1)NC(=O)[C@H](CCCCN)NC(=O)[C@H](CO)NC(=O)[C@@H](NC(=O)[C@H](CC(=O)O)NC(=O)[C@H](CO)NC(=O)[C@@H](NC(=O)[C@H](Cc1ccccc1)NC(=O)[C@@H](NC(=O)CNC(=O)[C@H](CCC(N)=O)NC(=O)C(C)(C)NC(=O)[C@@H](N)Cc1c[nH]cn1)[C@@H](C)O)[C@@H](C)O)C(C)C)[C@@H](C)O)C(C)C)C(=O)N[C@@H](CCC(=O)O)C(=O)N[C@@H](C)C(=O)NCC(=O)O` [Peptide 186] (H-H[Aib]QGTFTSDVSK[αMeF]LDTK([AEEA-AEEA-γGlu-C18 diacid])RAQDFVRWLLEAG-OH; N-terminus assumed), in experiment [1], the EC50 turned out to be 0.101 nM. Besides, in experiment [2], the EC50 was determined as 0.0449 nM and the “% Relative Potency Ratio” value was determined as 4.4.

Consider `CC(C)C[C@H](NC(=O)[C@H](Cc1c[nH]c2ccccc12)NC(=O)[C@H](CCCNC(=N)N)NC(=O)[C@@H](NC(=O)[C@H](Cc1ccccc1)NC(=O)[C@H](CC(=O)O)NC(=O)[C@H](CCCNC(=N)N)NC(=O)[C@H](C)NC(=O)[C@H](CCCNC(=N)N)NC(=O)[C@H](CCCCNC(=O)COCCOCCNC(=O)COCCOCCNC(=O)CC[C@H](NC(=O)CCCCCCCCCCCCCCCCC(=O)O)C(=O)O)NC(=O)[C@@H](NC(=O)[C@H](CC(=O)O)NC(=O)[C@H](CC(C)C)NC(=O)[C@](C)(Cc1ccccc1)NC(=O)[C@H](CCCCN)NC(=O)[C@H](CO)NC(=O)[C@@H](NC(=O)[C@H](CC(=O)O)NC(=O)[C@H](CO)NC(=O)[C@@H](NC(=O)[C@H](Cc1ccccc1)NC(=O)[C@@H](NC(=O)CNC(=O)[C@H](CCC(N)=O)NC(=O)C(C)(C)NC(=O)[C@@H](N)Cc1c[nH]cn1)[C@@H](C)O)[C@@H](C)O)C(C)C)[C@@H](C)O)C(C)C)C(=O)N[C@@H](CC(C)C)C(=O)N[C@@H](CCC(=O)O)C(=O)NC(C)(C)C(=O)NCC(=O)O` [Peptide 189] (H-H[Aib]QGTFTSDVSK[αMeF]LDTK([AEEA-AEEA-γGlu-C18 diacid])RARDFVRWLLE[Aib]G-OH; N-terminus assumed), for which the EC50 in experiment [1] was determined as 0.0443 nM; in experiment [2], 0.0113 nM. Besides, the “% Relative Potency Ratio” value in experiment [2] is reported as 7.7.

On to `CC(C)C[C@H](NC(=O)[C@H](Cc1c[nH]c2ccccc12)NC(=O)[C@H](CCCNC(=N)N)NC(=O)[C@@H](NC(=O)[C@H](Cc1ccccc1)NC(=O)[C@H](CC(=O)O)NC(=O)[C@H](CCC(N)=O)NC(=O)[C@H](C)NC(=O)[C@H](CCCNC(=N)N)NC(=O)[C@H](CCCCNC(=O)COCCOCCNC(=O)COCCOCCNC(=O)CC[C@H](NC(=O)CCCCCCCCCCCCCCCCC(=O)O)C(=O)O)NC(=O)[C@@H](NC(=O)[C@H](CC(=O)O)NC(=O)[C@H](CC(C)C)NC(=O)[C@](C)(Cc1ccccc1)NC(=O)[C@H](CCCCN)NC(=O)[C@H](CO)NC(=O)[C@@H](NC(=O)[C@H](CC(=O)O)NC(=O)[C@H](CO)NC(=O)[C@@H](NC(=O)[C@H](Cc1ccccc1)NC(=O)[C@@H](NC(=O)CNC(=O)[C@H](CCC(N)=O)NC(=O)C(C)(C)NC(=O)[C@@H](N)Cc1c[nH]cn1)[C@@H](C)O)[C@@H](C)O)C(C)C)[C@@H](C)O)C(C)C)C(=O)N[C@@H](CC(C)C)C(=O)NC(C)(C)C(=O)N[C@@H](CCC(=O)O)C(=O)O` [Peptide 192] (H-H[Aib]QGTFTSDVSK[αMeF]LDTK([AEEA-AEEA-γGlu-C18 diacid])RAQDFVRWLL[Aib]E-OH; N-terminus assumed), for which the EC50 in experiment [1] turned out to be 0.227 nM. Besides, in experiment [2], the concentration giving a half-maximal response (EC50) amounted to 0.108 nM and the “% Relative Potency Ratio” value worked out at 4.2.

As to `CC[C@H](C)[C@H](NC(=O)[C@H](CC(C)C)NC(=O)[C@H](Cc1c[nH]c2ccccc12)NC(=O)[C@H](CCCNC(=N)N)NC(=O)[C@@H](NC(=O)[C@H](Cc1ccccc1)NC(=O)[C@H](CC(=O)O)NC(=O)[C@H](CCC(N)=O)NC(=O)[C@H](C)NC(=O)[C@H](CCCNC(=N)N)NC(=O)[C@H](CCCCNC(=O)COCCOCCNC(=O)COCCOCCNC(=O)CC[C@H](NC(=O)CCCCCCCCCCCCCCCCC(=O)O)C(=O)O)NC(=O)[C@H](CO)NC(=O)[C@H](CC(=O)O)NC(=O)[C@H](CC(C)C)NC(=O)[C@](C)(Cc1ccccc1)NC(=O)[C@H](CCCCN)NC(=O)[C@H](CO)NC(=O)[C@@H](NC(=O)[C@H](CC(=O)O)NC(=O)[C@H](CO)NC(=O)[C@@H](NC(=O)[C@H](Cc1ccccc1)NC(=O)[C@@H](NC(=O)CNC(=O)[C@H](CCC(N)=O)NC(=O)C(C)(C)NC(=O)[C@@H](N)Cc1c[nH]cn1)[C@@H](C)O)[C@@H](C)O)C(C)C)C(C)C)C(=O)NC(C)(C)C(=O)N[C@@H](CCC(=O)O)C(=O)O` [Peptide 196] (H-H[Aib]QGTFTSDVSK[αMeF]LDSK([AEEA-AEEA-γGlu-C18 diacid])RAQDFVRWLI[Aib]E-OH; N-terminus assumed), the EC50 in experiment [1] is 0.24 nM; in experiment [2], 0.027 nM. The “% Relative Potency Ratio” value in experiment [2] was 17.6.

As to `CC(C)C[C@H](NC(=O)[C@H](Cc1c[nH]c2ccccc12)NC(=O)[C@H](CCCNC(=N)N)NC(=O)[C@@H](NC(=O)[C@H](Cc1ccccc1)NC(=O)[C@H](CC(=O)O)NC(=O)[C@H](CCCNC(=N)N)NC(=O)[C@H](C)NC(=O)[C@H](CCCNC(=N)N)NC(=O)[C@H](CCCCNC(=O)COCCOCCNC(=O)COCCOCCNC(=O)CC[C@H](NC(=O)CCCCCCCCCCCCCCCCC(=O)O)C(=O)O)NC(=O)[C@@H](NC(=O)[C@H](CC(=O)O)NC(=O)[C@H](CC(C)C)NC(=O)[C@](C)(Cc1ccccc1)NC(=O)[C@H](CCCCN)NC(=O)[C@H](CO)NC(=O)[C@@H](NC(=O)[C@H](CC(=O)O)NC(=O)[C@H](CO)NC(=O)[C@@H](NC(=O)[C@H](Cc1ccccc1)NC(=O)[C@@H](NC(=O)CNC(=O)[C@H](CCC(N)=O)NC(=O)C(C)(C)NC(=O)[C@@H](N)Cc1c[nH]cn1)[C@@H](C)O)[C@@H](C)O)C(C)C)[C@@H](C)O)C(C)C)C(=O)N[C@@H](CC(C)C)C(=O)NC(C)(C)C(=O)N[C@@H](CCC(=O)O)C(=O)O` [Peptide 197] (H-H[Aib]QGTFTSDVSK[αMeF]LDTK([AEEA-AEEA-γGlu-C18 diacid])RARDFVRWLL[Aib]E-OH; N-terminus assumed), the EC50 in experiment [1] was 0.112 nM. In addition, in experiment [2], the EC50 is 0.064 nM and the “% Relative Potency Ratio” value is on record as 3.5.

Consider `CC[C@H](C)[C@H](NC(=O)[C@H](Cc1ccccc1)NC(=O)[C@H](CC(=O)O)NC(=O)[C@H](CCCNC(=N)N)NC(=O)[C@H](C)NC(=O)[C@H](CCCNC(=N)N)NC(=O)[C@H](CCCCNC(=O)COCCOCCNC(=O)COCCOCCNC(=O)CC[C@H](NC(=O)CCCCCCCCCCCCCCCCC(=O)O)C(=O)O)NC(=O)[C@@H](NC(=O)[C@H](CC(=O)O)NC(=O)[C@H](CC(C)C)NC(=O)[C@](C)(Cc1ccccc1)NC(=O)[C@H](CCCCN)NC(=O)[C@H](CO)NC(=O)[C@@H](NC(=O)[C@H](CC(=O)O)NC(=O)[C@H](CO)NC(=O)[C@@H](NC(=O)[C@H](Cc1ccccc1)NC(=O)[C@@H](NC(=O)CNC(=O)[C@H](CCC(N)=O)NC(=O)C(C)(C)NC(=O)[C@@H](N)Cc1c[nH]cn1)[C@@H](C)O)[C@@H](C)O)C(C)C)[C@@H](C)O)C(=O)N[C@@H](C)C(=O)N[C@@H](Cc1c[nH]c2ccccc12)C(=O)N[C@@H](CC(C)C)C(=O)N[C@@H](CC(C)C)C(=O)NC(C)(C)C(=O)N[C@@H](CCC(=O)O)C(=O)O` [Peptide 198] (H-H[Aib]QGTFTSDVSK[αMeF]LDTK([AEEA-AEEA-γGlu-C18 diacid])RARDFIAWLL[Aib]E-OH; N-terminus assumed), for which the EC50 in experiment [1] amounted to 0.302 nM. Moreover, in experiment [2], the EC50 was determined as 0.212 nM and the “% Relative Potency Ratio” value is reported as 2.8.

As for `CC[C@H](C)[C@H](NC(=O)[C@H](Cc1ccccc1)NC(=O)[C@H](CC(=O)O)NC(=O)[C@H](CCCNC(=N)N)NC(=O)[C@H](C)NC(=O)[C@H](CCCNC(=N)N)NC(=O)[C@H](CCCCNC(=O)COCCOCCNC(=O)COCCOCCNC(=O)CC[C@H](NC(=O)CCCCCCCCCCCCCCCCC(=O)O)C(=O)O)NC(=O)[C@@H](NC(=O)[C@H](CC(=O)O)NC(=O)[C@H](CC(C)C)NC(=O)[C@](C)(Cc1ccccc1)NC(=O)[C@H](CCCCN)NC(=O)[C@H](CO)NC(=O)[C@@H](NC(=O)[C@H](CC(=O)O)NC(=O)[C@H](CO)NC(=O)[C@@H](NC(=O)[C@H](Cc1ccccc1)NC(=O)[C@@H](NC(=O)CNC(=O)[C@H](CCC(N)=O)NC(=O)C(C)(C)NC(=O)[C@@H](N)Cc1c[nH]cn1)[C@@H](C)O)[C@@H](C)O)C(C)C)[C@@H](C)O)C(=O)N[C@@H](C)C(=O)N[C@@H](Cc1c[nH]c2ccccc12)C(=O)N[C@@H](CC(C)C)C(=O)N[C@@H](CC(C)C)C(=O)N[C@@H](CCC(=O)O)C(=O)NC(C)(C)C(=O)NCC(=O)O` [Peptide 199] (H-H[Aib]QGTFTSDVSK[αMeF]LDTK([AEEA-AEEA-γGlu-C18 diacid])RARDFIAWLLE[Aib]G-OH), the values for the EC50 in experiment [1] and in experiment [2] were 0.18 nM and 0.0316 nM, respectively. Moreover, the “% Relative Potency Ratio” value in experiment [2] amounted to 11.3.
